Experimental data from patent US5585273A (priority 1994, dated 1996).
Where a SMILES comes first, the peptide text is derived from it. [ ]: non-standard residue; d: D form. The star is where a group is joined. Sta = CC(C)C[C@H](N)[C@@H](O)CC(=O)O; Isovaleryl = CC(C)CC(=O)*

Tests used:
[1] = target: T1, Papain (thiol protease) from papaya latex (Carica papaya, UniProt P00784); assay: Inhibition of papain-mediated HRPO release (Experiment XV, Part 2); assay type: biochemical; details: Part II
T1 construct: purchased Sigma Chemical Co; host or cells: papaya latex
Protocol: (§1) In the second part, the enzymes are preincubated with their respective inhibitors and appropriate buffers for 15 mins. These are then added to the substrate and incubated at room temp for further 15 mins.
(§2) In both cases, the reaction mixture is centrifuged to remove solid phase conjugate. The supernatant (5 μl) is added to Hemoccult® slides and developed with 5 μl of hydrogen peroxide.

[2] = target: T2, Trypsin (serine protease) from bovine pancreas (Bos taurus, UniProt P00760); assay: Inhibition of trypsin-mediated HRPO release (Experiment XV, Part 2); assay type: biochemical; details: Part II
T2 construct: purchased U.S. Biochemicals; host or cells: bovine pancreas
Protocol: as §1, §2

[3] = target: Candida albicans aspartic protease (Candida albicans, UniProt P0DJ06); details: Part II
Protocol: as §1, §2

[4] = tested on: Candida albicans aspartic protease; details: background statement; cited from earlier work
[5] = tested on: [POLYMERIC DIALDEHYDE-KAPPA-CASEIN-HRPO] conjugate; details: acetate buffer pH 4.0, 15 minutes at room temperature
Protocol: The suspension was incubated at room temperature for 15 minutes and centrifuged to remove the solid phase conjugate. Five microliters of the supernatant were added to a guaiac slide, followed by five microliters of hydrogen peroxide solution.

[6] = tested on: [SIGMACELL® 20-KAPPA-CASEIN-HRPO] (HYDRAZIDE METHOD) or [SIGMACELL® 20-MYOGLOBIN/HEMOGLOBIN-HRPO] (ALDEHYDE METHOD); details: acetate buffer pH 4.0, 15 minutes at room temperature
Protocol: (§3) 40 mg (wet weight) [Sigmacell® 20-Kappa-Casein-HRPO] conjugate were suspended in 75 microliters acetate buffer, pH 4.0 and 25 microliters of test solution were added. The suspension was incubated at room temperature for 15 minutes and centrifuged to remove the solid phase conjugate. Five microliters of the supernatant were added to a guaiac slide, followed by five microliters of hydrogen peroxide solution.

[7] = tested on: [Sigmacell® 20-Hemoglobin-HRPO] (or the myoglobin equivalent) conjugate; details: acetate buffer pH 4.0, 15 minutes at room temperature
Protocol: 40 mg (wet weight) [Sigmacell® 20-Hemoglobin-HRPO] (or the myoglobin equivalent) conjugate were suspended in 75 microliters acetate buffer, pH 4.0 and 25 microliters of test solution were added. The suspension was incubated at room temperature for 15 minutes and centrifuged to remove the solid phase conjugate. Five microliters of the supernatant were added to a guaiac slide, followed by five microliters of hydrogen peroxide solution.

[8] = tested on: [Sepharose-Hemoglobin-HRPO] (or the myoglobin equivalent) conjugate; details: acetate buffer pH 4.0, 15 minutes at room temperature
Protocol: 40 mg (wet weight) [Sepharose-Hemoglobin-HRPO] (or the myoglobin equivalent) conjugate were suspended in 75 microliters acetate buffer, pH 4.0 and 25 microliters of test solution were added. The suspension was incubated at room temperature for 15 minutes and centrifuged to remove the solid phase conjugate. Five microliters of the supernatant were added to a guaiac slide, followed by five microliters of hydrogen peroxide solution.

[9] = tested on: [Sigmacell® 20-Kappa-Casein-HRPO] conjugate; details: acetate buffer pH 4.0, 15 minutes at room temperature
Protocol: as §3

[10] = tested on: [Chitin-Kappa-Casein-HRPO] conjugate; details: acetate buffer pH 4.0, 15 minutes at room temperature
Protocol: 40 mg (wet weight) [Chitin-Kappa-Casein-HRPO] conjugate were suspended in 75 microliters acetate buffer, pH 4.0 and 25 microliters of test solution were added. The suspension was incubated at room temperature for 15 minutes and centfifuged to remove the solid phase conjugate. Five μl of the supernatant were added to a guaiac slide, followed by five microliters of hydrogen peroxide solution.

[11] = tested on: [Sepharose-Casein-HRPO] (or the Kappa-Casein equivalent) conjugate; details: acetate buffer pH 4.0, 15 minutes at room temperature
Protocol: 40 mg (wet weight) [Sepharose-Casein-HRPO] (or the Kappa-Casein equivalent) conjugate were suspended in 75 microliters acetate buffer, pH 4.0 and 25 microliters of test solution were added. The suspension was incubated at room temperature for 15 minutes and centrifuged to remove the solid phase conjugate. Five microliters of the supernatant were added to a guaiac slide, followed by five microliters of hydrogen peroxide solution.

[12] = tested on: [Eupergit® C-Myoglobin-HRPO]; assay: Activity of various proteases on Eupergit C-myoglobin-HRPO (Experiment XV); assay type: biochemical; details: Part I
Protocol: This assay is set up in two parts. The first is to determine the activity of the different proteases on the substrate [Eupergit® C-Myoglobin-HRPO]. The enzymes and controls (enzymes boiled for 15 min) are incubated with 20 mg of substrate and buffers (see quantities in table below) for 15 minutes prior to assay.

Chain of Candida albicans aspartic protease (Candida albicans, UniProt P0DJ06) (P0DJ06 57-398): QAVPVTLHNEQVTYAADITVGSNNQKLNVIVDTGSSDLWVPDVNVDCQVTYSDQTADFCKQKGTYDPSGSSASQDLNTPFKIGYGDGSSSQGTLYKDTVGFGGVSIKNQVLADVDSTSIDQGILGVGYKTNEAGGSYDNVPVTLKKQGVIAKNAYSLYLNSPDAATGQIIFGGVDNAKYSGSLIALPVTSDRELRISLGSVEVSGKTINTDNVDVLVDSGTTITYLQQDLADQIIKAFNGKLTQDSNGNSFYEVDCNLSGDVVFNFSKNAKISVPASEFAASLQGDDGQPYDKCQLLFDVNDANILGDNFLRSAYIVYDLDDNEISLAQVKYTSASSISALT

Cc1ccc(S(=O)(=O)NC(CCCCN)C(=O)CCl)cc1 (stereo not drawn) [TLCK, Tosyl lysine chloromethyl ketone]
inhibition of color formation by papain [1]: inhibits color formation | inhibition of color formation by trypsin [2]: inhibits color formation

CC(C)CC(=O)N[C@H](C(=O)N[C@H](C(=O)N[C@@H](CC(C)C)[C@@H](O)CC(=O)N[C@@H](C)C(=O)N[C@@H](CC(C)C)[C@@H](O)CC(=O)O)C(C)C)C(C)C [Pepstatin, Pepstatin A] (Isovaleryl-VV[Sta]A[Sta]-OH)
inhibition of color formation by aspartic protease [3]: inhibits color formation | inhibition of Candida albicans aspartic protease [4]: strongly inhibited

Pepsin
blue color formation on guaiac impregnated sheet [5]: dark blue color | blue color formation on guaiac impregnated sheet [6]: dark blue color | blue color formation on guaiac impregnated sheet [7]: dark blue color | blue color formation on guaiac impregnated sheet [8]: dark blue color | blue color formation on guaiac impregnated sheet [9]: dark blue color | blue color formation on guaiac impregnated sheet [10]: dark blue color | blue color formation on guaiac impregnated sheet [11]: dark blue color

B1: Trypsin (boiled): trypsin boiled for 15 min (control) (protein, UniProt P00760 24-246, looked up)
Serine protease 1: IVGGYTCGANTVPYQVSLNSGYHFCGGSLINSQWVVSAAHCYKSGIQVRLGEDNINVVEGNEQFISASKSIVHPSYNSNTLNNDIMLIKLKSAASLNSRVASISLPTSCASAGTQCLISGWGNTKSSGTSYPDVLKCLKAPILSDSSCKSAYPGQITSNMFCAGYLEGGKDSCQGDSGGPVVCSGKLQGIVSWGSGCAQKNKPGVYTKVCNYVSWIKQTIASN
modifications: heat-denatured
blue color formation on guaiac slides ([12]; pH 7.4): faintest color detectable

B2: Trypsin: Trypsin (serine protease) from bovine pancreas (2900 units/mg activity), 2 mg/ml (protein, UniProt P00760 24-246, looked up)
Serine protease 1: B1 Serine protease 1
blue color formation on guaiac slides ([12]; pH 7.4): strong blue color

B3: Papain (boiled): papain boiled for 15 min (control) (protein, UniProt P00784 134-345, looked up)
Papain: IPEYVDWRQKGAVTPVKNQGSCGSCWAFSAVVTIEGIIKIRTGNLNEYSEQELLDCDRRSYGCNGGYPWSALQLVAQYGIHYRNTYPYEGVQRYCRSREKGPYAAKTDGVRQVQPYNEGALLYSIANQPVSVVLEAAGKDFQLYRGGIFVGPCGNKVDHAVAAVGYGPNYILIKNSWGTGWGENGYIRIKRGTGNSYGVCGLYTSSFYPVKN
modifications: heat-denatured
blue color formation on guaiac slides ([12]; pH 7.4): faintest color detectable

B4: Papain: Papain (thiol protease) from papaya latex (12 units/mg activity), 2 mg/ml (protein, UniProt P00784 134-345, looked up)
Papain: B3 Papain
blue color formation on guaiac slides ([12]; pH 7.0): strong blue color
